Results from ChEMBL document CHEMBL3297683.
Calls of active or inactive are those of the source. No cut-off for these calls is given here.

How the values were obtained:
[1] = target: Lactoylglutathione lyase (Homo sapiens) (UniProt Q04760); test: Inactivation of human GLO1 expressed in Escherichia coli JM103 at 4.7 to 80.6 uM after 5 to 180 secs
[2] = target: Lactoylglutathione lyase (Homo sapiens) (UniProt Q04760); test: Competitive inhibition of human GLO1 expressed in Escherichia coli JM103 at 0.1 to 0.7 mM by Dixon plot analysis

Sequence of Lactoylglutathione lyase (Homo sapiens) (Q04760 2-184 limits assumed): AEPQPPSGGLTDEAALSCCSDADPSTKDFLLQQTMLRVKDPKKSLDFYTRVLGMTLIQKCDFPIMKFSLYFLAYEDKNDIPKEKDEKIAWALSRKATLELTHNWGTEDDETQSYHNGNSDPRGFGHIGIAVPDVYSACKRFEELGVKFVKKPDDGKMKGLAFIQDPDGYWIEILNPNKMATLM

Activity [1]: Active
inhibition [2]: inactive
SMILES: N[C@@H](CCC(=O)N[C@@H](CSCC(=O)OCCCCOC(=O)CBr)C(=O)NCC(=O)O)C(=O)O
